Source: US20260273004A1, “AGENT AND METHOD FOR MAINTAINING OR IMPROVING CEREBRAL FUNCTION USING CRUDE DRUG” (CEREBRO PHARMA INC., priority 2023, published 2026)

Legend:
[1] = system: mouse models of AD and PD; details: oral administration, Non-Patent Literature 18, 19; cited from earlier work
[2] = system: BDNF and nerve growth factor (NGF); details: oral administration; rat model of cerebral ischemia/reperfusion; Non-Patent Literature 20; cited from earlier work
Tau784 mice = experiment: Morris water maze test in Tau784 mice; format: in vivo, mouse; details: Tau784 mice aged 8-10 months; orally, one month; mixture of catechin 0.087 μg, chlorogenic acid 0.036 μg, rutin 0.123 μg, or catechin alone 0.087 μg; FIG. 24
Source text: The Tau784 mice are FTD models that express both three-repeat and four-repeat human tau at an adult age (with four-repeat human tau being dominantly expressed) due to the presence of a tau intron mutation (Non-Patent Literature 25: Umeda et al., Am. J. Pathol., (2013), 183[1]:211-25; and Non-Patent Literature 26: Umeda et al., Ann. Clin. Transl. Neurol., (2015), 2[3]:241-55).
To investigate the effect of mãmaki leaf hot water extract, the extract powder was suspended in water at concentrations of 3.33, 0.33, and 0.10 mg/mL by sonication. 300 μL of each suspension (containing 1,000, 100, and 30 μg of powder) was orally administered to male and female Tau784 mice five days a week (Monday to Friday) for one month. As a control, the same amount of water was administered to age-matched Tg and non-Tg littermates. For APP23, Huα-Syn (A53T), and C9-500 mice, a 0.33 mg/mL suspension (100 μg of powder/[…]) was orally administered to male and female mice for one month. […]
The spatial reference memory of each mouse was evaluated using the Morris water maze test (Non-Patent Literature 34: Kelley Bromley-Brits et al., J. Vis. Exp., (2011), 53e2920). […] Each mouse was placed in the pool and allowed to swim for 60 seconds, and the time taken to reach the platform was measured (referred to as escape latency). […]

Row | Molecule | memory and motor function [1] | expression of BDNF and nerve growth factor (NGF) [2] | memory (Morris water maze test) (Tau784 mice)
1 | O=C(/C=C/c1ccc(O)c(O)c1)O[C@@H]1C[C@](O)(C(=O)O)C[C@@H](O)[C@H]1O [Chlorogenic acid, 5-O-caffeoylquinic acid] | improves their memory and motor function | promote the expression of BDNF and nerve growth factor (NGF) | 
2 | catechin |  |  | showed a weaker effect than the polyphenol mixture
